# Assay results published in patent US11445726B2, “Pyridinium salt and pest control agent” (Nippon Soda Co., Ltd., priority 2017, dated 2022).
# How the values were obtained:
# Type in all cases: in vivo
# Tetranychus urticae = assay: Efficacy test against Tetranychus urticae (spray on kidney bean plants); conditions: 125 ppm spray on kidney bean plants, adult females removed after 3 days, surviving individuals 10 days after spraying
# Description: (§1) 5 parts by weight of the compound of the present invention, 93.6 parts by weight of dimethylformamide, and 1.4 parts by weight of polyoxyethylene alkylaryl ether were mixed and dissolved to prepare an emulsion (1) containing 5% of an active ingredient.
# 98.6 parts by weight of dimethylformamide, and 1.4 parts by weight of polyoxyethylene alkylaryl ether were mixed and dissolved to prepare an emulsion (11) containing no active ingredient.
# Kidney bean plants were raised in No. 3 pots, and 8 adult females of T. urticae from Aomori Prefecture were inoculated on primary leaves. The emulsion (I) was diluted with water so that the concentration of the compound of the present invention was 125 ppm. The diluent was sprayed on the kidney bean plants (treated group).
# On the same day, the emulsion (11) was diluted 400 times with water. The diluent was sprayed on the kidney bean plants (untreated group).
# The above No. 3 pots were left to stand in a thermostatic chamber at a temperature of 25° C. and a humidity of 65% during the test period. The inoculated adult females of T. urticae were removed with an aspirator 3 days after spraying. Eggs were laid on the leaves. The number of surviving individuals was examined 10 days after spraying, and the control rate was calculated according to the following formula. The test was repeated twice. Control rate (%)=100×[1−Nt/Nc] […]
# Plutella xylostella = assay: Efficacy test against Plutella xylostella (cabbage leaf dipping); conditions: 125 ppm, cabbage leaves immersed, second instar larvae, 3 days after release
# Method: as §1
# (§2) The emulsion (I) was diluted with water so that the concentration of the compound of the present invention was 125 ppm. Cabbage leaves were immersed in the diluent for 30 seconds. The cabbage leaves were air dried and placed in a petri dish, and five second instar larvae of P. xylostella were released. The petri dish was left to stand in a thermostatic chamber at a temperature of 25° C. and a humidity of 60% during the test period. Mortality was evaluated when 3 days passed since the release of the insects, and the insecticidal rate was calculated. The test was repeated twice.
# Spodoptera litura = assay: Efficacy test against Spodoptera litura (cabbage leaf dipping); conditions: 125 ppm, cabbage leaves immersed, second instar larvae, 6 days after release
# Method: as §1
# as §2, with “emulsion (1)” for “emulsion (I)”, “were” for “were air dried and”, “of S. litura” for “of P. xylostella”, “when 6” for “when 3”
# [1] = tested on: diamide-based insecticide-resistant Plutella xylostella; assay: Efficacy test against diamide-based insecticide-resistant Plutella xylostella; conditions: 125 ppm, cabbage leaves immersed, second instar larvae, 3 days
# Method: as §1
# (§3) The emulsion (I) was diluted with water so that the concentration of the compound of the present invention was 125 ppm. Cabbage leaves were immersed in the diluent for 30 seconds. The cabbage leaves were air dried and placed in a petri dish, and five second instar larvae of diamide-based insecticide-resistant P. xylostella were released.
# (§4) The petri dish was left to stand in a thermostatic chamber at a temperature of 25° C. and a humidity of 60% during the test period. Mortality was evaluated when 3 days passed since the release of the insects, and the insecticidal rate was calculated. The test was repeated twice.
# Mythimna separata = assay: Efficacy test against Mythimna separata (maize leaf dipping); conditions: 125 ppm, maize leaf pieces immersed, second instar larvae, 6 days after release
# Method: as §1
# The emulsion (1) was diluted with water so that the concentration of the compound of the present invention was 125 ppm. Maize leaf pieces were immersed in the diluent for 30 seconds. The maize leaf pieces were placed in a petri dish, and five second instar larvae of M. separata were released.
# The petri dish was left to stand in a thermostatic chamber at a temperature of 25° C. and a humidity of 60% during the test period. Mortality was evaluated when 6 days passed since the release of the insects, and the insecticidal rate was calculated. The test was repeated twice.
# Thrips palmi = assay: Efficacy test against Thrips palmi (spray on kidney bean leaf piece); conditions: 125 ppm spray, first instar larvae, 2 days
# Method: as §1
# 1% agar was poured into a plastic petri dish (90 mm diameter), and a primary leaf piece of a kidney bean plant was placed thereon. 15 first instar larvae of T. palmi were inoculated thereon. The emulsion (I) was diluted with water so that the concentration of the compound of the present invention was 125 ppm. The diluent was sprayed on the leaf piece of the kidney bean plant. The petri dish was left to stand in a thermostatic chamber at a temperature of 25° C. and a humidity of 60% during the test period. Mortality of T. palmi was examined 2 days after that, and the insecticidal rate was calculated. The test was repeated twice.
# [2] = tested on: benzoylurea-based insecticide-resistant Helicoverpa armigera; assay: Efficacy test against benzoylurea-based insecticide-resistant Helicoverpa armigera; conditions: 125 ppm, cabbage leaves immersed, second instar larvae, 3 days
# Method: as §1
# as §3, with “8” for “five”, “benzoylurea-based” for “diamide-based”, “H. armigera” for “P. xylostella”, “inoculated.” for “released.”
# as §4
structure (smiles),measurement,setting,value
O=C(N[n+]1ccccc1)c1ccc(Cl)cc1 [comparative compound A],control rate against T. urticae,Tetranychus urticae,100%
same,insecticidal rate against P. xylostella,Plutella xylostella,0%
same,insecticidal rate against S. litura,Spodoptera litura,0%
same,insecticidal rate against diamide-based insecticide-resistant P. xylostella,[1],0%
same,insecticidal rate against M. separata,Mythimna separata,0%
same,insecticidal rate against T. palmi,Thrips palmi,0%
same,insecticidal rate against benzoylurea-based insecticide-resistant H. armigera,[2],0%
